This note sets out measurements from patent US10689399B2, “Substituted 3,4,5,6,8,10,14,14a-octahydro-2h-2,6-methanopyrido[1′,2′:4,5]pyrazino[2,1-b][1,3]oxazocines and methods for treating viral infections” (Gilead Sciences, Inc., priority 2012, dated 2020).

In the assay the test system is HIV-IIIb. The assay is described as follows: Antiviral assay in MT4 cells. Format: cell-based. The following applies: Human immunodeficiency virus 1, IIIB, MT4, 120 h. As to the method:
For the antiviral assay utilizing MT4 cells, 0.4 μL of 189X test concentration of 3-fold serially diluted compound in DMSO was added to 40 μL of cell growth medium (RPMI 1640, 10% FBS, 1% penicilline/Streptomycine, 1% L-Glutamine, 1% HEPES) in each well of 384-well assay plates (10 concentrations) in quidruplicate.
1 mL aliquots of 2×10^6 MT4 cells are pre-infected for 1 and 3 hours respectively at 37° C. with 25 μL (MT4) or of either cell growth medium (mock-infected) or a fresh 1:250 dilution of an HIV-IIIb concentrated ABI stock (0.004 m.o.i. for MT4 cells). Infected and uninfected cells are diluted in cell growth medium and 35 μL of 2000 (for MT4) cells is added to each well of the assay plates.
Assay plates were then incubated in a 37° C. incubator. After 5 days of incubation, 25 μL of 2× concentrated CellTiter-Glo™ Reagent (catalog # G7573, Promega Biosciences, Inc., Madison, Wis.) was added to each well of the assay plate. Cell lysis was carried out by incubating at room temperature for 2-3 minutes, and then chemiluminescence was read using the Envision reader (PerkinElmer).

Where [1] appears, read: MT4 cells infected with HIV-IIIb, 5 days, CellTiter-Glo, read-out: EC50 nM in MT-4.

Where two headings read alike, the source gives them in different places.

As usually defined, the EC50 is the concentration that produces a half-maximal response. Consider `C[C@H](NC(=O)c1cn2c(c(O)c1=O)C(=O)N1[C@H]3CC[C@H](C3)O[C@@H]1C2)c1ccc(F)cc1F` [Compound 14, (2R,5S,13aR)—N—((S)-1-(2,4-difluorophenyl)ethyl)-8-hydroxy-7,9-dioxo-2,3,4,5,7,9,13,13a-octahydro-2,5-methanopyrido[1′,2′:4,5]pyrazino[2,1-b][1,3]oxazepine-10-carboxamide], for which the EC50 under setting [1] was found to be 65.5 nM.

For the compound `O=C(NCc1ccc(F)cc1)c1cn2c(c(O)c1=O)C(=O)N1[C@@H]3CC[C@@H](C3)O[C@H]1C2` [Compound 15, (2 S,5R,13aS)—N-(4-fluorobenzyl)-8-hydroxy-7,9-dioxo-2,3,4,5,7,9,13,13a-octahydro-2,5-methanopyrido[1′,2′:4,5]pyrazino[2,1-b][1,3]oxazepine-10-carboxamide], the EC50 under setting [1] was 2.2 nM.

Take `O=C(NCc1cccc(F)c1F)c1cn2c(c(O)c1=O)C(=O)N1[C@@H]3CC[C@@H](C3)O[C@H]1C2` [Compound 16, (2S,5R,13aS)—N-(2,3-difluorobenzyl)-8-hydroxy-7,9-dioxo-2,3,4,5,7,9,13,13a-octahydro-2,5-methanopyrido[1′,2′:4,5]pyrazino[2,1-b][1,3]oxazepine-10-carboxamide]: the half-maximal effective concentration (EC50) under setting [1] came out at 1.5 nM.

For `O=C(NCc1ccc(Cl)cc1F)c1cn2c(c(O)c1=O)C(=O)N1[C@@H]3CC[C@@H](C3)O[C@H]1C2` [Compound 17, (2 S,5R,13aS)—N-(4-chloro-2-fluorobenzyl)-8-hydroxy-7,9-dioxo-2,3,4,5,7,9,13,13a-octahydro-2,5-methanopyrido[1′,2′:4,5]pyrazino[2,1-b][1,3]oxazepine-10-carboxamide], the EC50 under setting [1] was determined as 5.9 nM.

As for `O=C(NCc1ccc(F)c(F)c1)c1cn2c(c(O)c1=O)C(=O)N1[C@@H]3CC[C@@H](C3)O[C@H]1C2` [Compound 18, (2S,5R,13aS)—N-(3,4-difluorobenzyl)-8-hydroxy-7,9-dioxo-2,3,4,5,7,9,13,13a-octahydro-2,5-methanopyrido[1′,2′:4,5]pyrazino[2,1-b][1,3]oxazepine-10-carboxamide], under setting [1], the EC50 came to 4.1 nM.

As to `O=C(NCc1ccc(F)cc1F)c1cn2c(c(O)c1=O)C(=O)N1C(C2)[N@]2CCC[C@H]1C2` (stereo partly drawn) [Compound 19, (1R,5S)—N-(2,4-difluorobenzyl)-8-hydroxy-7,9-dioxo-2,3,4,5,7,9,13,13a-octahydro-1,5-methanopyrido[1′,2′:4,5]pyrazino[1,2-a][1,3]diazepine-10-carboxamide], under setting [1], the EC50 is 2.8 nM.

As to `O=C(NCc1ccc(F)cc1F)c1cn2c(c(O)c1=O)C(=O)N1C(C2)[N@@]2CCC[C@@H]1C2` (stereo partly drawn) [Compound 20, (1S,5R)—N-(2,4-difluorobenzyl)-8-hydroxy-7,9-dioxo-2,3,4,5,7,9,13,13a-octahydro-1,5-methanopyrido[1′,2′:4,5]pyrazino[1,2-a][1,3]diazepine-10-carboxamide], the EC50 under setting [1] is 3.3 nM.

On to `C[C@H](NC(=O)c1cn2c(c(O)c1=O)C(=O)N1[C@@H]3CC[C@@H](C3)O[C@H]1C2)c1ccc(F)cc1` [Compound 21, (2S,5R,13aS)—N—((S)-1-(4-fluorophenyl)ethyl)-8-hydroxy-7,9-dioxo-2,3,4,5,7,9,13,13a-octahydro-2,5-methanopyrido[1′,2′:4,5]pyrazino[2,1-b][1,3]oxazepine-10-carboxamide], for which the EC50 under setting [1] was found to be 38.3 nM.

Take `C[C@H](NC(=O)c1cn2c(c(O)c1=O)C(=O)N1[C@H]3CC[C@H](C3)O[C@@H]1C2)c1ccc(F)cc1` [Compound 22, (2R,5S,13aR)—N—((S)-1-(4-fluorophenyl)ethyl)-8-hydroxy-7,9-dioxo-2,3,4,5,7,9,13,13a-octahydro-2,5-methanopyrido[1′,2′:4,5]pyrazino[2,1-b][1,3]oxazepine-10-carboxamide]: the EC50 under setting [1] is 64.3 nM.

As to `O=C(NCc1ccccc1F)c1cn2c(c(O)c1=O)C(=O)N1[C@@H]3CC[C@@H](C3)O[C@H]1C2` [Compound 23, (2 S,5R,13aS)—N-(2-fluorobenzyl)-8-hydroxy-7,9-dioxo-2,3,4,5,7,9,13,13a-octahydro-2,5-methanopyrido[1′,2′:4,5]pyrazino[2,1-b][1,3]oxazepine-10-carboxamide], under setting [1], the EC50 was determined as 2.3 nM.

In the case of `O=C(NCc1cc(F)cc(F)c1)c1cn2c(c(O)c1=O)C(=O)N1[C@@H]3CC[C@@H](C3)O[C@H]1C2` [Compound 24, (2 S,5R,13aS)—N-(3,5-difluorobenzyl)-8-hydroxy-7,9-dioxo-2,3,4,5,7,9,13,13a-octahydro-2,5-methanopyrido[1′,2′: 4,5]pyrazino[2,1-b][1,3]oxazepine-10-carboxamide], the EC50 under setting [1] is 6.1 nM.

In the case of `O=C(NCc1ccc(F)c(C(F)(F)F)c1)c1cn2c(c(O)c1=O)C(=O)N1[C@@H]3CC[C@@H](C3)O[C@H]1C2` [Compound 25, (2S,5R,13aS)—N-(4-fluoro-3-(trifluoromethyl)benzyl)-8-hydroxy-7,9-dioxo-2,3,4,5,7,9,13,13a-octahydro-2,5-methanopyrido[1′,2′:4,5]pyrazino[2,1-b][1,3]oxazepine-10-carboxamide], the EC50 under setting [1] worked out at 26.2 nM.

As for `O=C(NCc1ccc(Cl)c(F)c1)c1cn2c(c(O)c1=O)C(=O)N1[C@@H]3CC[C@@H](C3)O[C@H]1C2` [Compound 26, (2 S,5R,13aS)—N-(4-chloro-3-fluorobenzyl)-8-hydroxy-7,9-dioxo-2,3,4,5,7,9,13,13a-octahydro-2,5-methanopyrido[1′,2′: 4,5]pyrazino[2,1-b][1,3]oxazepine-10-carboxamide], the EC50 under setting [1] is 10.3 nM.

Take `O=C(NC1(c2ccc(F)cc2F)CC1)c1cn2c(c(O)c1=O)C(=O)N1C(C2)O[C@H]2CC[C@@H]1C2` (stereo partly drawn) [Compound 27, (2 S,5R)—N-(1-(2,4-difluorophenyl)cyclopropyl)-8-hydroxy-7,9-dioxo-2,3,4,5,7,9,13,13a-octahydro-2,5-methanopyrido[1′,2′:4,5]pyrazino[2,1-b][1,3]oxazepine-10-carboxamide]: the EC50 under setting [1] came to 4.4 nM.

Take `O=C(NC1(c2ccc(F)cc2F)CC1)c1cn2c(c(O)c1=O)C(=O)N1C(C2)O[C@H]2CCC[C@@H]1C2` (stereo partly drawn) [Compound 28, (2 S,6R)—N-(1-(2,4-difluorophenyl)cyclopropyl)-9-hydroxy-8,10-dioxo-3,4,5,6,8,10,14,14a-octahydro-2H-2,6-methanopyrido[1′,2′:4,5]pyrazino[2,1-b][1,3]oxazocine-11-carboxamide]: the EC50 under setting [1] came out at 15.6 nM.

Regarding `O=C(NC1(c2ccc(F)cc2F)CC1)c1cn2c(c(O)c1=O)C(=O)N1C(C2)O[C@@H]2CCC[C@H]1C2` (stereo partly drawn) [Compound 29, (2R,6S)—N-(1-(2,4-difluorophenyl)cyclopropyl)-9-hydroxy-8,10-dioxo-3,4,5,6,8,10,14,14a-octahydro-2H-2,6-methanopyrido[1′,2′:4,5]pyrazino[2,1-b][1,3]oxazocine-11-carboxamide], under setting [1], the EC50 is 13.9 nM.

Turning to `O=C(NC1(c2ccc(F)cc2F)CC1)c1cn2c(c(O)c1=O)C(=O)N1C(C2)O[C@@H]2CC[C@H]1C2` (stereo partly drawn) [Compound 31, (2R,5S)—N-(1-(2,4-difluorophenyl)cyclopropyl)-8-hydroxy-7,9-dioxo-2,3,4,5,7,9,13,13a-octahydro-2,5-methanopyrido[1′,2′:4,5]pyrazino[2,1-b][1,3]oxazepine-10-carboxamide], the EC50 under setting [1] came to 9 nM.

For `O=C(NC1(c2ccc(F)cc2F)CCC1)c1cn2c(c(O)c1=O)C(=O)N1C(C2)O[C@H]2CC[C@@H]1C2` (stereo partly drawn) [Compound 32, (2S,5R)—N-(1-(2,4-difluorophenyl)cyclobutyl)-8-hydroxy-7,9-dioxo-2,3,4,5,7,9,13,13a-octahydro-2,5-methanopyrido[1′,2′: 4,5]pyrazino[2,1-b][1,3]oxazepine-10-carboxamide], the EC50 under setting [1] amounted to 14 nM.

For the compound `O=C(NC1(c2ccc(F)cc2F)CCCC1)c1cn2c(c(O)c1=O)C(=O)N1C(C2)O[C@H]2CC[C@@H]1C2` (stereo partly drawn) [Compound 33, (2S,5R)—N-(1-(2,4-difluorophenyl)cyclopentyl)-8-hydroxy-7,9-dioxo-2,3,4,5,7,9,13,13a-octahydro-2,5-methanopyrido[1%2′: 4,5]pyrazino[2,1-b][1,3]oxazepine-10-carboxamide], the EC50 under setting [1] came to 43.5 nM.

As for `O=C(NC1(c2ccc(F)cc2F)CCCCC1)c1cn2c(c(O)c1=O)C(=O)N1C(C2)O[C@H]2CC[C@@H]1C2` (stereo partly drawn) [Compound 34, (2S,5R)—N-(1-(2,4-difluorophenyl)cyclohexyl)-8-hydroxy-7,9-dioxo-2,3,4,5,7,9,13,13a-octahydro-2,5-methanopyrido[1′,2′: 4,5]pyrazino[2,1-b][1,3]oxazepine-10-carboxamide], for the setting “read-out: EC50 nM in MT-4, MT4 cells infected with HIV-IIIb, 5 days, CellTiter-Glo”, the EC50 stood at 422 nM.

Consider `O=C(NC1(c2ccc(F)cc2F)CCOCC1)c1cn2c(c(O)c1=O)C(=O)N1C(C2)O[C@H]2CC[C@@H]1C2` (stereo partly drawn) [Compound 35, (2S,5R)—N-(4-(2,4-difluorophenyl)tetrahydro-2H-pyran-4-yl)-8-hydroxy-7,9-dioxo-2,3,4,5,7,9,13,13a-octahydro-2,5-methanopyrido[1′,2′:4,5]pyrazino[2,1-b][1,3]oxazepine-10-carboxamide], for which the EC50 under setting [1] worked out at 157 nM.

In the case of `O=C(N[C@@H](c1ccc(F)cc1F)C(F)(F)F)c1cn2c(c(O)c1=O)C(=O)N1C(C2)O[C@H]2CC[C@@H]1C2` (stereo partly drawn) [Compound 36, (2S,5R)—N—((S)-1-(2,4-difluorophenyl)-2,2,2-trifluoroethyl)-8-hydroxy-7,9-dioxo-2,3,4,5,7,9,13,13a-octahydro-2,5-methanopyrido[1′,2′:4,5]pyrazino[2,1-b][1,3]oxazepine-10-carboxamide], under setting [1], the EC50 is 7.6 nM.
